# In article PMC5686072, “Targeting SxIP-EB1 interaction: An integrated approach to the discovery of small molecule modulators of dynamic binding sites” (Scientific Reports, 2017):
# Where a SMILES comes first, the peptide text is derived from it.
# Molecular target: T1, EB1_191–260 (EB1c) (Homo sapiens, UniProt Q15691)
# T1 construct: Human EB1 (Uniprot code Q15691), residues 191–260, was cloned into pOPINS vector; SUMO fusion protein (cleaved yes); 6xHis (cleaved yes); made in house; host or cells: E. coli BL21 Star (DE3)
# T1 sequence (Q15691 191-260): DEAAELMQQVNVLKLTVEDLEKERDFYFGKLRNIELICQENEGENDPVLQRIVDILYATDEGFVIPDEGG
# Experiment: 1H-15N HSQC NMR ligand screening / titration (chemical shift perturbations, KD by curve fitting)
# Type: binding
# Conditions: NMR titration curves (Tyr247) fitted to two-state exchange model; 50 μM protein; read-out: estimated KD
# Source text: The ^1H and ^15N resonances were fully assigned using complementary pairs of triple resonance NMR spectra - CBCA(CO)NH/HNCACB for Cα and Cβ and HNCO/HN(CA)CO for CO connectivities.
# Ligand-induced chemical shift perturbations (CSPs) in NH resonances on addition of the ligand were used as an indication of ligand binding and location of the binding site.
# NMR spectra were collected on Bruker Avance III 600 and 800 MHz spectrometers equipped with CryoProbes. Spectra were processed with TopSpin (Bruker) and analysed using CCPNmr Analysis[35]. ^1H-^15N HSQC ligand screening ^1H-^15N- Heteronuclear Single Quantum Coherence (HSQC) experiments for ligand binding screening were performed using 0.05 mM ^15N-labelled EB1 in 20 mM phosphate pH 6.5, 50 mM NaCl, 0.5 mM TCEP, 0.02% (w/v) NaN3 in the absence or presence of ligands. To eliminate any small shifts induced by the small amounts of DMSO used to dissolve the compounds, DMSO concentration was kept constant in all experiments.
# The dotted lines connect the values calculated for the best-fit curves at the titration points. Ligand concentration corresponds to the excess of ligand (e.g. 10-fold excess, 20-fold excess) to the protein concentration (50 μM). Binding constants were evaluated by fitting the experimental data to the […]
# ∆δ = ∆δ {([P] + [L] + K ) − [([P] + [L] + K )2 − 4[P] [L] ]1⁄2}⁄2[P] […]
row,Kd,Structure (SMILES)
1,6 ± 1 mM,Cc1c(NC(=O)[C@@H](C)Sc2nnnn2C2CCCC2)c(=O)n(-c2ccccc2)n1C [1d]
2,10 ± 3 mM,C[C@@H](Sc1nnnn1C1CCCC1)C(=O)NCc1ccco1 [1a]
3,14 ± 1.9 mM,"CC[C@H](C)[C@H](NC(=O)[C@H](CCCCN)NC(=O)[C@@H](N)CO)C(=O)N1CCC[C@H]1C(=O)O [SKIP, reference compound] (H-SKIP-OH)"
